What was measured:
Type in all cases: in vivo
[1] = system: redroot pigweed (Amaranthus retroflexus, AMARE); test: Pre-emerge test, greenhouse herbicide activity screening; conditions: pre-emerge, rated 14 days after application, 0 = no damage, 100 = complete death
Summary of the method: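 Sandy loam pots; pre-emerge: sown 1 d pre-spray, surface-watered after, then bottom-watered. Post-emerge: sown 8–21 d before, 2–3 leaf stage, + 0.25% v/v NIS, bottom-watered. Acetone, 187 l/ha track spray, 15–1000 g ai/ha. 0–100 injury score, day 14.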

[2] = system: upland rice (Oryza sp., var. Tebonnet, RICE); test: Post-emerge test, crop safety; conditions: phytotoxicity rating 0-100 (0 no damage, 100 complete death), 14 days after application
Summary of the method: (§1)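 Compounds in acetone were track-sprayed at 187 l/ha, 15–1000 g ai/ha, onto sandy loam pots. Pre-emerge seeds were sown one day before spraying, with surface watering afterwards. Post-emerge plants were at the 2–3 leaf stage and sprayed with 0.25% v/v non-ionic surfactant. Injury was rated 0–100 at 14 days.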

[3] = system: field corn (Zea mays L., var. Dekalb 535, CORN); test: Post-emerge test, crop safety; conditions: phytotoxicity rating 0-100 (0 no damage, 100 complete death), 14 days after application
Summary of the method: as §1

[4] = system: lambsquarters (Chenopodium album, CHEAL); test: Post-emerge test, greenhouse herbicide activity screening; conditions: phytotoxicity rating 0-100 (0 no damage, 100 complete death), 14 days after application
Summary of the method: (§2)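 Rating: 0–100 visual injury, 14 DAA. Application: acetone, 187 l/ha, 15–1000 g ai/ha, flat-fan track sprayer with nozzle 40–45 cm above soil or canopy. Post-emerge runs used 0.25% v/v surfactant on 2–3 leaf plants.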

[5] = system: large crabgrass (Digitaria sanguinalis, DIGSA); test: as above; conditions: phytotoxicity rating 0-100 (0 no damage, 100 complete death), 14 days after application
Summary of the method: as §2

[6] = system: redroot pigweed (Amaranthus retroflexus, AMARE); test: as above; conditions: phytotoxicity rating 0-100 (0 no damage, 100 complete death), 14 days after application
Summary of the method: as §2

[7] = system: ivyleaf morningglory (Ipomoea hederacea, IPOHE); test: as above; conditions: phytotoxicity rating 0-100 (0 no damage, 100 complete death), 14 days after application
Summary of the method: as §2

[8] = system: sicklepod (Cassia obtusifolia, CASOB); test: as above; conditions: phytotoxicity rating 0-100 (0 no damage, 100 complete death), 14 days after application
Summary of the method: as §2

[9] = system: velvetleaf (Abutilon theophrasti, ABUTH); test: as above; conditions: phytotoxicity rating 0-100 (0 no damage, 100 complete death), 14 days after application
Summary of the method: as §2

[10] = system: green foxtail (Setaria viridis, SETVI); test: as above; conditions: phytotoxicity rating 0-100 (0 no damage, 100 complete death), 14 days after application
Summary of the method: as §2

[11] = system: johnsongrass (Sorghum halepense, SORHA); test: as above; conditions: phytotoxicity rating 0-100 (0 no damage, 100 complete death), 14 days after application
Summary of the method: as §2

[12] = system: barnyardgrass (Echinochloa crus-galli, ECHCG); test: as above; conditions: phytotoxicity rating 0-100 (0 no damage, 100 complete death), 14 days after application
Summary of the method: as §2

[13] = system: upland rice (Oryza sp., var. Tebonnet, RICE); test: Pre-emerge test, crop safety; conditions: pre-emerge, rated 14 days after application, 0 = no damage, 100 = complete death
Summary of the method: (§3)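 Applied at 15–1000 g ai/ha from acetone in 187 l/ha spray volume. Post-emergence applications included 0.25% v/v non-ionic surfactant and reached plants sown 8–21 days before. Pre-emergence applications were incorporated by surface watering. Efficacy or crop damage was rated on a 0–100 scale after 14 days.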

[14] = system: field corn (Zea mays L., var. Dekalb 535, CORN); test: Pre-emerge test, crop safety; conditions: pre-emerge, rated 14 days after application, 0 = no damage, 100 = complete death
Summary of the method: as §3

[15] = system: lambsquarters (Chenopodium album, CHEAL); test: Pre-emerge test, greenhouse herbicide activity screening; conditions: pre-emerge, rated 14 days after application, 0 = no damage, 100 = complete death
Summary of the method: as §1

[16] = system: large crabgrass (Digitaria sanguinalis, DIGSA); test: as above; conditions: pre-emerge, rated 14 days after application, 0 = no damage, 100 = complete death
Summary of the method: as §1

[17] = system: ivyleaf morningglory (Ipomoea hederacea, IPOHE); test: as above; conditions: pre-emerge, rated 14 days after application, 0 = no damage, 100 = complete death
Summary of the method: as §1

[18] = system: sicklepod (Cassia obtusifolia, CASOB); test: as above; conditions: pre-emerge, rated 14 days after application, 0 = no damage, 100 = complete death
Summary of the method: as §1

[19] = system: velvetleaf (Abutilon theophrasti, ABUTH); test: as above; conditions: pre-emerge, rated 14 days after application, 0 = no damage, 100 = complete death
Summary of the method: as §1

[20] = system: green foxtail (Setaria viridis, SETVI); test: as above; conditions: pre-emerge, rated 14 days after application, 0 = no damage, 100 = complete death
Summary of the method: as §1

[21] = system: johnsongrass (Sorghum halepense, SORHA); test: as above; conditions: pre-emerge, rated 14 days after application, 0 = no damage, 100 = complete death
Summary of the method: as §1

[22] = system: barnyardgrass (Echinochloa crus-galli, ECHCG); test: as above; conditions: pre-emerge, rated 14 days after application, 0 = no damage, 100 = complete death
Summary of the method: as §1

**Q.** How did the “Pre-emerge Herbicidal Activity AMARE (phytotoxicity rating, scale 0-100)” value ([1]; 63 g ai/ha) turn out when `COc1c(Cl)cc(F)c(-n2c(=O)cc(C(F)(F)F)n(C)c2=O)c1N(C(=O)C1CC1)C(=O)C1CC1` [2-18] was run?
**A.** 40

**Q.** And the “Pre-emerge Herbicidal Activity AMARE (phytotoxicity rating, scale 0-100)” value ([1]; 250 g ai/ha)?
**A.** 100

**Q.** What about the “Post-emerge Herbicidal Activity RICE (crop damage)” value ([2]; 63 g ai/ha) of the same compound?
**A.** 0

**Q.** What about the “Post-emerge Herbicidal Activity RICE (crop damage)” value ([2]; 250 g ai/ha) of the same compound?
**A.** 0

**Q.** What about the “Post-emerge Herbicidal Activity CORN (crop damage)” value ([3]; 63 g ai/ha) of the same compound?
**A.** 0

**Q.** And the “Post-emerge Herbicidal Activity CORN (crop damage)” value ([3]; 250 g ai/ha)?
**A.** 0

**Q.** What about the “Post-emerge Herbicidal Activity CHEAL” value ([4]; 63 g ai/ha) of the same compound?
**A.** 0

**Q.** And the “Post-emerge Herbicidal Activity CHEAL” value ([4]; 250 g ai/ha)?
**A.** 50

**Q.** And the “Post-emerge Herbicidal Activity DIGSA” value ([5]; 63 g ai/ha)?
**A.** 0

**Q.** What about the “Post-emerge Herbicidal Activity DIGSA” value ([5]; 250 g ai/ha) of the same compound?
**A.** 0

**Q.** What about the “Post-emerge Herbicidal Activity AMARE” value ([6]; 63 g ai/ha) of the same compound?
**A.** 0

**Q.** What about the “Post-emerge Herbicidal Activity AMARE” value ([6]; 250 g ai/ha) of the same compound?
**A.** 95

**Q.** And the “Post-emerge Herbicidal Activity IPOHE” value ([7]; 63 g ai/ha)?
**A.** 0

**Q.** And the “Post-emerge Herbicidal Activity IPOHE” value ([7]; 250 g ai/ha)?
**A.** 30

**Q.** And the “Post-emerge Herbicidal Activity CASOB” value ([8]; 63 g ai/ha)?
**A.** 0

**Q.** What about the “Post-emerge Herbicidal Activity CASOB” value ([8]; 250 g ai/ha) of the same compound?
**A.** 10

**Q.** What about the “Post-emerge Herbicidal Activity ABUTH” value ([9]; 63 g ai/ha) of the same compound?
**A.** 0

**Q.** And the “Post-emerge Herbicidal Activity ABUTH” value ([9]; 250 g ai/ha)?
**A.** 40

**Q.** And the “Post-emerge Herbicidal Activity SETVI” value ([10]; 63 g ai/ha)?
**A.** 0

**Q.** And the “Post-emerge Herbicidal Activity SETVI” value ([10]; 250 g ai/ha)?
**A.** 0

**Q.** What about the “Post-emerge Herbicidal Activity SORHA” value ([11]; 63 g ai/ha) of the same compound?
**A.** 0

**Q.** What about the “Post-emerge Herbicidal Activity SORHA” value ([11]; 250 g ai/ha) of the same compound?
**A.** 0

**Q.** What about the “Post-emerge Herbicidal Activity ECHCG” value ([12]; 63 g ai/ha) of the same compound?
**A.** 0

**Q.** And the “Post-emerge Herbicidal Activity ECHCG” value ([12]; 250 g ai/ha)?
**A.** 0

**Q.** What about the “Pre-emerge crop damage RICE (phytotoxicity rating, scale 0-100)” value ([13]; 63 g ai/ha) of the same compound?
**A.** 0

**Q.** What about the “Pre-emerge crop damage RICE (phytotoxicity rating, scale 0-100)” value ([13]; 250 g ai/ha) of the same compound?
**A.** 20

**Q.** And the “Pre-emerge crop damage CORN (phytotoxicity rating, scale 0-100)” value ([14]; 63 g ai/ha)?
**A.** 0

**Q.** What about the “Pre-emerge crop damage CORN (phytotoxicity rating, scale 0-100)” value ([14]; 250 g ai/ha) of the same compound?
**A.** 0

**Q.** What about the “Pre-emerge Herbicidal Activity CHEAL (phytotoxicity rating, scale 0-100)” value ([15]; 63 g ai/ha) of the same compound?
**A.** 10

**Q.** What about the “Pre-emerge Herbicidal Activity CHEAL (phytotoxicity rating, scale 0-100)” value ([15]; 250 g ai/ha) of the same compound?
**A.** 90

**Q.** And the “Pre-emerge Herbicidal Activity DIGSA (phytotoxicity rating, scale 0-100)” value ([16]; 63 g ai/ha)?
**A.** 0

**Q.** What about the “Pre-emerge Herbicidal Activity DIGSA (phytotoxicity rating, scale 0-100)” value ([16]; 250 g ai/ha) of the same compound?
**A.** 0

**Q.** What about the “Pre-emerge Herbicidal Activity IPOHE (phytotoxicity rating, scale 0-100)” value ([17]; 63 g ai/ha) of the same compound?
**A.** 0

**Q.** What about the “Pre-emerge Herbicidal Activity IPOHE (phytotoxicity rating, scale 0-100)” value ([17]; 250 g ai/ha) of the same compound?
**A.** 40

**Q.** What about the “Pre-emerge Herbicidal Activity CASOB (phytotoxicity rating, scale 0-100)” value ([18]; 63 g ai/ha) of the same compound?
**A.** 0

**Q.** And the “Pre-emerge Herbicidal Activity CASOB (phytotoxicity rating, scale 0-100)” value ([18]; 250 g ai/ha)?
**A.** 40

**Q.** And the “Pre-emerge Herbicidal Activity ABUTH (phytotoxicity rating, scale 0-100)” value ([19]; 63 g ai/ha)?
**A.** 0

**Q.** What about the “Pre-emerge Herbicidal Activity ABUTH (phytotoxicity rating, scale 0-100)” value ([19]; 250 g ai/ha) of the same compound?
**A.** 100

**Q.** And the “Pre-emerge Herbicidal Activity SETVI (phytotoxicity rating, scale 0-100)” value ([20]; 63 g ai/ha)?
**A.** 0

**Q.** What about the “Pre-emerge Herbicidal Activity SETVI (phytotoxicity rating, scale 0-100)” value ([20]; 250 g ai/ha) of the same compound?
**A.** 80

**Q.** What about the “Pre-emerge Herbicidal Activity SORHA (phytotoxicity rating, scale 0-100)” value ([21]; 63 g ai/ha) of the same compound?
**A.** 0

**Q.** What about the “Pre-emerge Herbicidal Activity SORHA (phytotoxicity rating, scale 0-100)” value ([21]; 250 g ai/ha) of the same compound?
**A.** 0

**Q.** What about the “Pre-emerge Herbicidal Activity ECHCG (phytotoxicity rating, scale 0-100)” value ([22]; 63 g ai/ha) of the same compound?
**A.** 0

**Q.** And the “Pre-emerge Herbicidal Activity ECHCG (phytotoxicity rating, scale 0-100)” value ([22]; 250 g ai/ha)?
**A.** 0
